According to ChEMBL document CHEMBL4814073, “Ring-opening of five-membered heterocycles conjugated 4-isopropylresorcinol scaffold-based benzamides as HSP90 inhibitors suppressing tumor growth in vitro and in vivo” (Eur J Med Chem, 2021):
The source made the active and inactive calls. The rule behind the calls is not given here.

Assays:
[1] = Apparent permeability across basolateral to apical in human Caco2 cells by LC-MS/MS analysis; assay type: ADME, cell-based; settings: Caco-2, read-out: permeability
Cytochrome P450 2B6 = target: T1, Cytochrome P450 2B6 (Homo sapiens, UniProt P20813); experiment: Inhibition of CYP2B6 in human liver microsomes using bupropion as substrate by LC-MS/MS analysis; assay type: ADME
T1 sequence (P20813 whole entry): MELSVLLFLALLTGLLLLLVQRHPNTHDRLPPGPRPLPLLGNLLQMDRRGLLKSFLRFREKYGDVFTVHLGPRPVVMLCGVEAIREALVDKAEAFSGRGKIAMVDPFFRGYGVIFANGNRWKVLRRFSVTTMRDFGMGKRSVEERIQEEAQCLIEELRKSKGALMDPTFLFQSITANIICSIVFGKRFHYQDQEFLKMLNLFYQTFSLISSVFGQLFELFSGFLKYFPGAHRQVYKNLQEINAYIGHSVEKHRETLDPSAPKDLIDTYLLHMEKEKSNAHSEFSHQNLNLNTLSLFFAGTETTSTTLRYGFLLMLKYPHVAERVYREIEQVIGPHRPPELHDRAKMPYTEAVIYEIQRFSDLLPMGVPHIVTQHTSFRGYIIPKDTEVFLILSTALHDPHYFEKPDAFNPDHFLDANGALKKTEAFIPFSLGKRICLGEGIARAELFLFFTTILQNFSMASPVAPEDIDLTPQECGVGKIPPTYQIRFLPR

[2] = AUC (0 to t) in Sprague-Dawley rat at 20 mg/kg, po measured after 1 hrs by LC-MS/MS analysis; assay type: ADME, organism-based; set-up: route oral, time 1 hrs, dose 20 mg/kg; settings: in vivo
A549 [3] = experiment: Induction of cell cycle arrest in human A549 cells assessed as increases in cdc2 expression at Thr161 at 0.3 uM incubated for 24 hrs by Western blot analysis; assay type: functional, cell-based
A549 [4] = experiment: Antitumor activity against human A549 cells xenografted in BALB/c mouse assessed as reduction in tumor growth inhibition at 50 mg/kg, po treated daily relative to control; settings: read-out: TGI
A549 [5] = experiment: Induction of cell cycle arrest in human A549 cells assessed as decrease in cdc2 expression at Tyr15 at 0.3 uM incubated for 24 hrs by Western blot analysis; assay type: functional, cell-based
CYP1A2 = target: T2, CYP1A2 (Homo sapiens, UniProt P05177); experiment: Inhibition of CYP1A2 in human liver microsomes using phenacetin as substrate at 50 uM by LC-MS/MS analysis; assay type: ADME; settings: probe phenacetin
T2 sequence (P05177 whole entry): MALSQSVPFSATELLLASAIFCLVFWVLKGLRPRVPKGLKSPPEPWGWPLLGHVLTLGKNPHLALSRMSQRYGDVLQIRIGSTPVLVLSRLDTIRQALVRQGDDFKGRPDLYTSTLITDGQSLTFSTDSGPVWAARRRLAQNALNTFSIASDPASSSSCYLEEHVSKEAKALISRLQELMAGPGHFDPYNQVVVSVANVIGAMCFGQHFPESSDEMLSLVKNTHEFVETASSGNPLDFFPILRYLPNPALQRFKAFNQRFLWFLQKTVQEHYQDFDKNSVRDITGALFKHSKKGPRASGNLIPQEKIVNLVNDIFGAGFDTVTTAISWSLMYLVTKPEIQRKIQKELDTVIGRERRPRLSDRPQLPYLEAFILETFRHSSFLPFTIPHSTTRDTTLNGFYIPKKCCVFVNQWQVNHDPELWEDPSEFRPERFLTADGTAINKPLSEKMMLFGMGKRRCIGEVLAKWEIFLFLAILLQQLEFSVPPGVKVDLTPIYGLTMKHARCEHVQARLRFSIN

A549 [6] = experiment: Antitumor activity against human A549 cells xenografted in BALB/c mouse assessed as tumor growth inhibition at 25 mg/kg, po treated daily relative to control; settings: read-out: TGI
[7] = Tmax in Sprague-Dawley rat at 20 mg/kg, po measured after 1 hrs by LC-MS/MS analysis; assay type: ADME, organism-based; settings: in vivo
[8] = Volume of distribution at steady state in Sprague-Dawley rat at 2 mg/kg, iv measured after 1 hrs by LC-MS/MS analysis; assay type: ADME, organism-based; settings: in vivo, read-out: Vdss
[9] = Hepatic clearance in Beagle dog by LC-MS/MS analysis; assay type: ADME, tissue-based, Canis lupus familiaris, Hepatocyte; settings: hepatocytes
[10] = Toxicity in BALB/c mouse xenografted with human A549 cells assessed as reduction in body weight at 25 to 50 mg/kg, po treated daily relative to control; settings: in vivo
A549 [11] = experiment: Induction of cell cycle arrest in human A549 cells assessed as decrease in cdc25c expression at Ser216 at 0.3 uM incubated for 24 hrs by Western blot analysis; assay type: functional, cell-based
661W = experiment: Cytotoxicity against mouse 661W cells by MTT based vision related toxicity assay; assay type: cell-based
A549 [12] = experiment: Induction of apoptosis in human A549 cells expressing wild type p53 assessed as caspase 3 cleavage at 0.3 uM incubated for 24 hrs by Western blot analysis; assay type: functional, cell-based
[13] = Metabolic stability in Sprague-Dawley rat hepatocytes assessed as half life by LC-MS/MS analysis; assay type: ADME, cell-based, Hepatocyte
Heat shock protein HSP90 [14] = target: T3, Heat shock protein HSP90 (Homo sapiens, UniProt P07900+P08238); experiment: Inhibition of HSP90 (unknown origin) assessed as competition of fluorescently labelled geldanamycin binding after 2 hrs by microplate reader analysis; assay type: protein assay
A549 [15] = experiment: Induction of EGFR degradation in human A549 cells assessed as reduction in eGFR expression at 3 uM by immunoblot analysis; assay type: functional, cell-based; settings: time hrs <=24, TDE = time-dependent effect
A549 [16] = experiment: Induction of apoptosis in human A549 cells assessed as increase in cleaved caspase 6 protein expression at 0.3 to 3 uM measured after 18 hrs by western blot analysis; assay type: functional, cell-based; settings: dose 0.3-3 µM
Cytochrome P450 2C9 = Cytochrome P450 2C9 (Homo sapiens, UniProt P11712); experiment: Inhibition of CYP2C9 in human liver microsomes using diclofenac as substrate by LC-MS/MS analysis; assay type: ADME
Heat shock protein HSP90 [17] = target: T3, Heat shock protein HSP90; experiment: Inhibition of HSP90 in human A549 cells assessed as downregulation of Src expression at 0.3 uM by immunoblot analysis; settings: time hrs <=24, TDE = time-dependent effect
[18] = Cmax in Sprague-Dawley rat at 20 mg/kg, po measured after 1 hrs by LC-MS/MS analysis; assay type: ADME, organism-based; set-up: route oral, dose 20 mg/kg, time 1 hrs; settings: in vivo
A549 [19] = experiment: Inhibition of MAPK signaling pathway in human A549 cells at 3 uM incubated upto 24 hrs by immunoblot analysis; assay type: cell-based; settings: time hrs <=24, TDE = time-dependent effect
A549 [20] = experiment: Antitumor activity against human A549 cells xenografted in BALB/c mouse assessed as tumor growth delay at 25 mg/kg, po treated daily relative to control
A549 [21] = experiment: Induction of apoptosis in human A549 cells assessed as upregulation of p53 protein expression at 0.3 uM incubated for 24 hrs by Western blot analysis; assay type: functional, cell-based
A549 [22] = experiment: Induction of apoptosis in human A549 cells assessed as increase in cleaved caspase 9 protein expression at 0.3 to 3 uM measured after 18 hrs by western blot analysis; assay type: functional, cell-based; settings: dose 0.3-3 µM
[23] = Clearance in Sprague-Dawley rat at 2 mg/kg, iv measured after 1 hrs by LC-MS/MS analysis; assay type: ADME, organism-based; settings: in vivo

Sequence of Cytochrome P450 2C9 (P11712 whole entry): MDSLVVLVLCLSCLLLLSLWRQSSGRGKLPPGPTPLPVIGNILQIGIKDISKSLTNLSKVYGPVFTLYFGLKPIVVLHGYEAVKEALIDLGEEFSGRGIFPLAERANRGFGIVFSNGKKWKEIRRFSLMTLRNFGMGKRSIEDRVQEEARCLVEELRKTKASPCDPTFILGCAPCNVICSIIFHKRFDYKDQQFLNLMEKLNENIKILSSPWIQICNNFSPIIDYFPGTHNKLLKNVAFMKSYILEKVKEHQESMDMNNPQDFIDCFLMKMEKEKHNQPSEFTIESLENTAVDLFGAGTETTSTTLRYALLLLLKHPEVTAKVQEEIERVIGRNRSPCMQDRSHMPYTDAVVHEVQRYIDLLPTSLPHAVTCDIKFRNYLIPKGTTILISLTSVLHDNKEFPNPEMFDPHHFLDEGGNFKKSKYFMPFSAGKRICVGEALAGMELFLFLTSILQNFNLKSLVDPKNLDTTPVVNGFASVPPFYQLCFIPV

CCN(C(=O)c1cc(C(C)C)c(O)cc1O)c1cccnc1
Papp B→A [1]: 30.6 ×10⁻⁶ cm/s
IC50 (Cytochrome P450 2B6): 37.2 µM
AUCt [2]: 737 ng·h/mL
Activity (A549 [3]): Active
inhibition in vivo at 50 mg/kg (A549 [4]): 46.9%
Activity (A549 [5]): Active
inhibition at 50 µM (CYP1A2): 50.6%
inhibition in vivo at 25 mg/kg (A549 [6]): 46.7%
Tmax [7]: 15 min
Vd [8]: 4.59 L/kg
CLhep predicted [9]: 25 mL/min/kg
Activity [10]: Non-Toxic
Activity (A549 [11]): Active
Activity (661W): > 10 µM
Activity (A549 [12]): inactive
half-life [13]: 11.2 min
IC50 (Heat shock protein HSP90 [14]): 0.11 µM
Activity (A549 [15]): Tde
Activity (A549 [16]): Active
IC50 (Cytochrome P450 2C9): 15 µM
inhibition (Heat shock protein HSP90 [17]): Tde
Cmax [18]: 40.5 ng/mL
inhibition (A549 [19]): Tde
Activity (A549 [20]): 41%
Activity (A549 [21]): Active
Activity (A549 [22]): Active
clearance [23]: 73.2 mL/min/kg
